Data taken from patent US5322859A, “Antiglaucoma drug composition and method” (University of Iowa Research Foundation, priority 1993, dated 1994).

How the values were obtained:
Alpha 2 Receptor = assay: NovaScreen receptor binding, Alpha 2 Receptor
Method: (§1) A number of compounds were sent to NovaScreen® (5200 Freeport Centre, Baltimore, Md. 21224) to determine the compounds' receptor selectivity. […] Compounds which show inhibition of 50% or greater at an assay concentration of 10 μM to 1 nM are considered active or very potent, respectively. In the table below a number of compounds show significant results for two or more of the significant receptors.

Serotonin 1 Receptor = assay: NovaScreen receptor binding, Serotonin 1 Receptor
Method: as §1

eye = details: previously disclosed by applicants; 0.2% to about 0.6% w/v preferred; cited from earlier work
rabbit eye = assay: IOP recovery rate assay (hypertonic sodium chloride infusion, topical drug); assay type: in vivo; details: 0.6% solution
Method: The "IOP recovery rate assay" as reported by Vareilles and Lotti (Ophthalmic Res., 13, 72-79, 1981) is used.
IOP was measured at 15, 25, 35, 45, 60, 75, 90 and 120 minutes with an applanation pneumatonometer (Digilab Model D). Fifty uL of a 0.6% solution of N,N'-dimethyl-2-phenylethylamine containing a pH 7.4 phosphate buffer was administered topically to the right eye 60 minutes before the start of the sodium chloride infusion. Control animals were given vehicle without drug.
The hypertonic sodium chloride solution causes a temporary decline in IOP which returns to normal IOP in about 90 minutes if no drug is administered. IOP gradually returns to normal at a constant rate buy more slowly if the in vivo secretion rate of aqueous humor is reduced due to the presence of drug. The return to normal IOP is measured from the positive linear slope which is a measure of the constant rate of return to normal IOP and begins at about 30-45 minutes after starting the NaCl infusion. A comparison of the slope with and without the addition of N=2, R&R'=CH3 to the rabbit eye is expressed as "% reduction".

Serotonin 2 Receptor = Serotonin 2 Receptor (Homo sapiens, UniProt P28223); assay: NovaScreen receptor binding, Serotonin 2 Receptor; details: for inhibition at 10 µM: 10^-5 M (10 μM); for inhibition at 0.1 µM: 10^-7 M (100 nM); for inhibition at 0.001 µM: 10^-9 M (1 nM)
Chain of Serotonin 2 Receptor (P28223 whole entry): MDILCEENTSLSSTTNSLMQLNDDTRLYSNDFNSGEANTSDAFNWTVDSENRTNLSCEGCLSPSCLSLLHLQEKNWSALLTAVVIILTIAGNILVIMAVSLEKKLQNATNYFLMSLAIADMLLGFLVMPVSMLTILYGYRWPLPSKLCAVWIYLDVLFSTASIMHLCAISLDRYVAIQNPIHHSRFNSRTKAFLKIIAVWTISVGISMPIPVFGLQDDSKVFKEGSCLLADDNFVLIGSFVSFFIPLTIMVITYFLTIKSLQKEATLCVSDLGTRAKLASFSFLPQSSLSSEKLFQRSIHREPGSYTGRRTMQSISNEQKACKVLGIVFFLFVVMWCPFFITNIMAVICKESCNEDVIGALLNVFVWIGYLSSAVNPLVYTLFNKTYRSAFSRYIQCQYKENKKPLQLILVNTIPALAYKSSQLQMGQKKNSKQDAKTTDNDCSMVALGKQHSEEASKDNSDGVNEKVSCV
Method: as §1

Structure (SMILES)	% INHIBITION (Alpha 2 Receptor; 10^-5 M (10 μM))	% INHIBITION (Alpha 2 Receptor; 10^-7 M (100 nM))	% INHIBITION (Alpha 2 Receptor; 10^-9 M (1 nM))	% INHIBITION (Serotonin 1 Receptor; 10^-5 M (10 μM))	% INHIBITION (Serotonin 1 Receptor; 10^-7 M (100 nM))	% INHIBITION (Serotonin 1 Receptor; 10^-9 M (1 nM))	tear stimulation (eye)	average slope of return to normal IOP (rabbit eye; 50 uL topical to right eye 60 min before NaCl infusion, n = 12 rabbit eyes, ± standard deviation, vehicle only 0.109 ± 0.0268)	% Reduction of slope vs vehicle (rabbit eye; topical, n = 12 rabbit eyes)	in vivo antiglaucoma activity (rabbit eye; topical, rabbit eye)	inhibition at 10 µM (Serotonin 2 Receptor)	inhibition at 0.1 µM (Serotonin 2 Receptor)	inhibition at 0.001 µM (Serotonin 2 Receptor)
CCN(C)Cc1ccccc1 [n = 1, R = CH3, R' = C2 H5]	53.0%	4.7%	2.2%	17.2%	6.2%	5.7%	–	–	–	–	–	–	–
CN(C)CCc1ccccc1 [n = 2, R&R' = CH3, N,N-dimethyl-2-phenylethylamine]	96.7%	15.3%	8.1%	82.3%	70.6%	62.3%	ophthalmically effective tear stimulant	0.066 ± 0.027	38.5%	potent in vivo antiglaucoma drug	46.9%	10.7%	-2.1%
CCCCCCN(C)CCc1ccccc1 [n = 2, R = CH3, R' = n-hexyl]	95.7%	6.7%	1.6%	55.0%	30.0%	10.3%	–	–	–	–	92%	9.6%	2.3%
CN(CCCc1ccccc1)C1CCCCC1 [n = 3, R = methyl, R' = cyclohexyl]	81.0%	9.3%	3.3%	5.7%	-10.2%	-6.3%	–	–	–	–	82.1%	-8%	-15.4%
CCN(CCc1ccccc1)C1CCCCC1.Cl [n = 2, R = C2 H5, R' = cyclohexyl, N-cyclohexyl-N-ethyl 2-phenylethylamine hydrochloride]	–	–	–	12.2%	-4.0%	2.6%	–	–	–	–	48.9%	4.7%	-11.2%
